The values that follow are results of earlier work, collected in US11859018B2, “Peptoid-based chelating ligands for selective metal chelation” (TRIAD National Security, LLC., priority 2018, dated 2024).

On to `O=C(N[C@H]1COC(=O)[C@@H](NC(=O)c2cccc(O)c2O)COC(=O)[C@@H](NC(=O)c2cccc(O)c2O)COC1=O)c1cccc(O)c1O` [enterobactin], for which the “stability constant for the Fe(III) complex, Log(Kβ)” value is 49.
